{"source": "patent US6316405A", "about": "“Cyclosporin a conjugates and uses therefor” (Wisconsin Alumni Research Foundation, priority 1999, dated 2001)", "key": {"[1]": {"experiment": "Solubility of conjugates in organic solvents", "conditions": "running text"}, "[2]": {"experiment": "Solubility of Aβ-binding peptides in organic solvents", "conditions": "for solubility of the peptide (in words): running text, organic solvents", "method": "After cleavage from the resin with TFA, the solubles of the crude peptides were determined (ca. 3-5 mg/0.5-1.0 ml) in various solvents (LiCl/DMF, DMF or NMP, and/or mixtures with DCM/MeOH/CH3 CN/dioxane).\n^a conditions: 3-5 mg peptide/0.5-1.0 mL.\n^b conditions tested; NMP, DMF, DMF/LiCl, THF, CH3 CN, DCM, MeOH,"}, "cyclophilin (Cyp)": {"tested_on": "cyclophilin (Cyp)", "conditions": "cited from earlier work"}, "nerve regeneration": {"tested_on": "nerve regeneration", "conditions": "NGF must be present; Lyons et al. 1994, Steine et al. 1997; cited from earlier work"}, "Aβ peptide": {"target": "Aβ peptide (Homo sapiens, UniProt P05067)", "sequence (P05067 672-713 limits assumed)": "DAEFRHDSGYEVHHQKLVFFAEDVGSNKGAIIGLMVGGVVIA", "conditions": "Tjernberg et al. 1996; cited from earlier work"}, "[3]": {"conditions": "Table 11.1, ca. 3-5 mg/0.5-1.0 ml"}, "[4]": {"conditions": "Table 11.1, crude peptides for CsA analog coupling, ca. 3-5 mg/0.5-1.0 ml"}, "[5]": {"conditions": "Table 11.3, 3-5 mg peptide/0.5-1.0 mL, all free lysines are TFA salts"}}, "note": "“Also recorded” adds a separate entry of the source. Peptide text beside a SMILES is read from it. * marks the point of attachment. X1 = CCC(C)(C)C(=O)C(=O)N1CCCC[C@H]1C(=O)O[C@H](CCc1ccccc1)c1cccc(OCC(=O)*)c1; NHTrityl = c1ccc(C(N*)(c2ccccc2)c2ccccc2)cc1; Acetyl(pyridin-2-yl) = O=C(Cc1ccccn1)*; Fmoc = O=C(OCC1c2ccccc2-c2ccccc21)*; ClZ = O=C(OCc1ccccc1Cl)*; Alloc = C=CCOC(=O)*", "data": [{"molecule": "C=CCOC(=O)NCCCC[C@H](NC(=O)Cc1ccccn1)C(=O)N[C@@H](CC(C)C)C(=O)N[C@H](C(=O)N[C@@H](Cc1ccccc1)C(=O)N[C@@H](Cc1ccccc1)C(=O)N[C@@H](CCCCNC(=O)COc1cccc([C@@H](CCc2ccccc2)OC(=O)[C@@H]2CCCCN2C(=O)C(=O)C(C)(C)CC)c1)C(N)=O)C(C)C", "note": "[10.9, Pyridyl acetyl-K(alloc)LVFFK-NH2 /FKBP inhibitor conjugate] ({Acetyl(pyridin-2-yl)}-K(Alloc)LVFFK(X1)-NH2)", "values": [{"measurement": "solubility of the conjugate (in words)", "setting": "[1]", "value": "methanol soluble salt"}]}, {"molecule": "CC(=O)N[C@@H](CCC(N)=O)C(=O)N[C@@H](CCCCNC(=O)OCc1ccccc1Cl)C(=O)N[C@@H](CC(C)C)C(=O)N[C@H](C(=O)N[C@@H](Cc1ccccc1)C(=O)N[C@@H](Cc1ccccc1)C(=O)O)C(C)C", "note": "[11.23, Ac-QK(2Cl-Cbz)LVFF-OH]", "values": [{"measurement": "Solubility grade in LiCl/DMF or LiCl/NMP", "setting": "[2]; [3]", "value": "medium"}, {"measurement": "solubility of the peptide (in words)", "setting": "[2]", "value": "poorly soluble in all solvents including LiCl/DMF; also recorded: sparingly soluble in LiCl/DMF"}]}, {"molecule": "CC(=O)N[C@@H](CCC(=O)NC(c1ccccc1)(c1ccccc1)c1ccccc1)C(=O)N[C@@H](CCCCNC(=O)OCc1ccccc1Cl)C(=O)N[C@@H](CC(C)C)C(=O)N[C@H](C(=O)N[C@@H](Cc1ccccc1)C(=O)N[C@@H](Cc1ccccc1)C(=O)O)C(C)C", "note": "[11.24, Ac-Q(Trt)K(2Cl-Cbz)LVFF-OH] (Ac-E(NHTrityl)K(ClZ)LVFF-OH)", "values": [{"measurement": "Solubility grade in LiCl/DMF or LiCl/NMP", "setting": "[2]; [3]", "value": "medium"}, {"measurement": "solubility of the peptide (in words)", "setting": "[2]", "value": "no improvement in solubility is observed"}]}, {"molecule": "CC(C)C[C@H](NC(=O)[C@H](CCCCNC(=O)OCc1ccccc1Cl)NC(=O)[C@H](CCC(=O)NC(c1ccccc1)(c1ccccc1)c1ccccc1)NC(=O)OCC1c2ccccc2-c2ccccc21)C(=O)N[C@H](C(=O)N[C@@H](Cc1ccccc1)C(=O)N[C@@H](Cc1ccccc1)C(=O)O)C(C)C", "note": "[11.25, Fmoc-Q(Trt)K(2Cl-Cbz)LVFF-OH] (Fmoc-E(NHTrityl)K(ClZ)LVFF-OH)", "values": [{"measurement": "Solubility (solvent in which the peptide is soluble)", "setting": "[2]; [4]", "value": "Hot NMP"}, {"measurement": "solubility of the peptide (in words)", "setting": "[2]", "value": "soluble in only hot NMP and remained cloudy in LiCl/DMF"}]}, {"molecule": "CC(C)C[C@H](NC(=O)[C@H](CCCCNC(=O)OCc1ccccc1Cl)NC(=O)OCC1c2ccccc2-c2ccccc21)C(=O)N[C@H](C(=O)N[C@@H](Cc1ccccc1)C(=O)N[C@@H](Cc1ccccc1)C(=O)O)C(C)C", "note": "[11.26, Fmoc-K(2Cl-Cbz)LVFF-OH]", "values": [{"measurement": "Solubility (solvent in which the peptide is soluble)", "setting": "[2]; [4]", "value": "DMF"}, {"measurement": "solubility of the peptide (in words)", "setting": "[2]", "value": "completely soluble in DMF after a short period of vortexing"}]}, {"molecule": "CC(=O)N[C@@H](CCCCNC(=O)OCc1ccccc1Cl)C(=O)N[C@@H](CC(C)C)C(=O)N[C@H](C(=O)N[C@@H](Cc1ccccc1)C(=O)N[C@@H](Cc1ccccc1)C(=O)O)C(C)C", "note": "[11.27, Ac-K(2Cl-Cbz)LVFF-OH]", "values": [{"measurement": "Solubility (solvent in which the peptide is soluble)", "setting": "[2]; [4]", "value": "DMF"}, {"measurement": "solubility of the peptide (in words)", "setting": "[2]", "value": "soluble in DMF but requires a longer vortexing period"}, {"measurement": "solubility of the peptide (in words)", "setting": "[2]; listed as Ac-K(2Cl-Cbz)LVFF-OH", "value": "increased solubility in DMF"}]}, {"molecule": "CC(C)C[C@H](NC(=O)[C@H](CCCCNC(=O)OCc1ccccc1Cl)NC(=O)[C@H](CCC(=O)O)NC(=O)OCC1c2ccccc2-c2ccccc21)C(=O)N[C@H](C(=O)N[C@@H](Cc1ccccc1)C(=O)N[C@@H](Cc1ccccc1)C(N)=O)C(C)C", "note": "[11.28, Fmoc-EK(2Cl-Cbz)LVFF-NH2] (Fmoc-EK(ClZ)LVFF-NH2)", "values": [{"measurement": "Solubility (solvent in which the peptide is soluble)", "setting": "[2]; [4]", "value": "DMF"}, {"measurement": "solubility of the peptide (in words)", "setting": "[2]", "value": "soluble in neat DMF without added LiCl"}]}, {"molecule": "CC(=O)N[C@@H](CCC(=O)O)C(=O)N[C@@H](CCCCNC(=O)OCc1ccccc1Cl)C(=O)N[C@@H](CC(C)C)C(=O)N[C@H](C(=O)N[C@@H](Cc1ccccc1)C(=O)N[C@@H](Cc1ccccc1)C(N)=O)C(C)C", "note": "[11.29, Ac-EK(2Cl-Cbz)LVFF-NH2] (Ac-EK(ClZ)LVFF-NH2)", "values": [{"measurement": "Solubility (solvent in which the peptide is soluble)", "setting": "[2]; [4]", "value": "LiCl/DMF"}, {"measurement": "solubility of the peptide (in words)", "setting": "[2]", "value": "completely soluble only in LiCl/DMF"}, {"measurement": "solubility of the peptide (in words)", "setting": "[2]; listed as Ac-EK(2Cl-Cbz)LVFF-NH2", "value": "increased solubility in DMF"}]}, {"molecule": "C=CCOC(=O)NCCCC[C@H](NC(=O)[C@H](CCCCN)NC(=O)OCC1c2ccccc2-c2ccccc21)C(=O)N[C@@H](CC(C)C)C(=O)N[C@H](C(=O)N[C@@H](Cc1ccccc1)C(=O)N[C@@H](Cc1ccccc1)C(N)=O)C(C)C", "note": "[11.35, Fmoc-KK(Alloc)LVFF-NH2] (Fmoc-KK(Alloc)LVFF-NH2)", "values": [{"measurement": "Solubility grade in LiCl/DMF or LiCl/NMP", "setting": "[2]; [5]", "value": "medium"}, {"measurement": "solubility of the peptide (in words)", "setting": "[2]", "value": "insoluble in DMF/LiCl"}]}, {"molecule": "C=CCOC(=O)NCCCC[C@H](NC(=O)OCC1c2ccccc2-c2ccccc21)C(=O)N[C@@H](CC(C)C)C(=O)N[C@H](C(=O)N[C@@H](Cc1ccccc1)C(=O)N[C@@H](Cc1ccccc1)C(=O)N[C@@H](CCCCN)C(N)=O)C(C)C", "note": "[11.36, Fmoc-K(Alloc)LVFFK-NH2] (Fmoc-K(Alloc)LVFFK-NH2)", "values": [{"measurement": "Solubility (solvent in which the peptide is soluble)", "setting": "[2]; [5]", "value": "LiCl/DMF"}, {"measurement": "solubility of the peptide (in words)", "setting": "[2]", "value": "completely soluble in LiCl/DMF"}]}, {"molecule": "CC(C)C[C@H](NC(=O)[C@H](CCCCN)NC(=O)OCC1c2ccccc2-c2ccccc21)C(=O)N[C@H](C(=O)N[C@@H](Cc1ccccc1)C(=O)N[C@@H](Cc1ccccc1)C(N)=O)C(C)C", "note": "[11.37, Fmoc-KLVFF-NH2]", "values": [{"measurement": "Solubility (solvent in which the peptide is soluble)", "setting": "[2]; [5]", "value": "DMF"}, {"measurement": "solubility of the peptide (in words)", "setting": "[2]", "value": "completely soluble in DMF"}]}, {"molecule": "CC(C)C[C@H](NC(=O)[C@H](CCCCN)NC(=O)Cc1ccccn1)C(=O)N[C@H](C(=O)N[C@@H](Cc1ccccc1)C(=O)N[C@@H](Cc1ccccc1)C(N)=O)C(C)C", "note": "[11.39, Pyridylacetate-KLVFF-NH2]", "values": [{"measurement": "Solubility (solvent in which the peptide is soluble)", "setting": "[2]; [5]", "value": "DMF"}, {"measurement": "solubility of the peptide (in words)", "setting": "[2]", "value": "completely soluble in DMF as the double TFA salts"}]}, {"molecule": "C=CCOC(=O)NCCCC[C@H](NC(=O)Cc1ccccn1)C(=O)N[C@@H](CC(C)C)C(=O)N[C@H](C(=O)N[C@@H](Cc1ccccc1)C(=O)N[C@@H](Cc1ccccc1)C(=O)N[C@@H](CCCCN)C(N)=O)C(C)C", "note": "[11.40, Pyiidylacetate-K(Alloc)LVFFK-NH2] ({Acetyl(pyridin-2-yl)}-K(Alloc)LVFFK-NH2)", "values": [{"measurement": "Solubility (solvent in which the peptide is soluble)", "setting": "[2]; [5]", "value": "DMF"}, {"measurement": "solubility of the peptide (in words)", "setting": "[2]", "value": "completely soluble in DMF as the double TFA salts"}]}, {"molecule": "C=CCOC(=O)NCCCC[C@H](NC(=O)OCC1c2ccccc2-c2ccccc21)C(=O)N[C@@H](CC(C)C)C(=O)N[C@H](C(=O)N[C@@H](Cc1ccccc1)C(=O)N[C@@H](Cc1ccccc1)C(=O)N[C@@H](CCCCNC(=O)COc1cccc([C@@H](CCc2ccccc2)OC(=O)[C@@H]2CCCCN2C(=O)C(=O)C(C)(C)CC)c1)C(N)=O)C(C)C", "note": "[11.41] (Fmoc-K(Alloc)LVFFK(X1)-NH2)", "values": [{"measurement": "solubility of the conjugate (in words)", "setting": "[1]", "value": "not completely soluble in DCM, DCM/MeOH, or MeOH"}]}, {"molecule": "C=CC[C@@H]1/C=C(\\C)C[C@H](C)C[C@H](OC)[C@H]2O[C@@](O)(C(=O)C(=O)N3CCCC[C@H]3C(=O)O[C@H](/C(C)=C/[C@@H]3CC[C@@H](O)[C@H](OC)C3)[C@H](C)[C@@H](O)CC1=O)[C@H](C)C[C@@H]2OC", "note": "[FK506]", "values": [{"measurement": "binding to cyclophilin (in words)", "setting": "cyclophilin (Cyp)", "value": "does not bind to Cyp"}, {"measurement": "significant neurotrophic activity at concentrations as low as", "setting": "nerve regeneration", "value": 1, "unit": "pM"}]}, {"molecule": "Ac-QKLVFF-NH2", "values": [{"measurement": "fibril formation (in words)", "setting": "Aβ peptide", "value": "binds to and inhibits fibril formation"}]}, {"molecule": "[MeLeu(3-OH)^1, MeAla^4,6 ]-CsA", "values": [{"measurement": "binding to cyclophilin (in words)", "setting": "cyclophilin (Cyp)", "value": "retains tight-binding to cyclophilin"}]}]}
